Data published in patent publication US10071957B2, “N-substituted benzamides and methods of use thereof” (GENENTECH, INC., priority 2012, dated 2018).

What was measured:
hNaV1.5 = hNaV1.5 (Homo sapiens (Human), UniProt Q14524); assay: Patch voltage clamp electrophysiology, inactivated state block of NaV1.5 in HEK-293 cells; assay type: cell-based; conditions: HEK cells with β1 subunit, read-out: hNaV 1.5 IC50
Procedure: (§1) Patch voltage clamp electrophysiology allows for the direct measurement and quantification of block of voltage-gated sodium channels (NaV's), and allows the determination of the time- and voltage-dependence of block which has been interpreted as differential binding to the resting, open, and inactivated states of the sodium channel (Hille, B., Journal of General Physiology (1977), 69: 497-515).
(§2) The following patch voltage clamp electrophysiology studies were performed on representative compounds of the invention using human embryonic kidney cells (HEK), permanently transfected with an expression vector containing the full-length cDNA coding for the desired human sodium channel α-subunit, grown in culture media containing 10% FBS, 1% PSG, and 0.5 mg/mL G418 at 37° C. with 5% CO2. […] NaV1.7 and NaV1.5 cDNAs (NM_002977 and AC137587; SCN5A, respectively) were stably expressed in HEK-293 cells. The β1 subunit was coexpressed in both the NaV1.7 and NaV1.5 cell lines.
(§3) Sodium currents were measured using the patch clamp technique in the whole-cell configuration using either a PatchXpress automated voltage clamp or manually using an Axopatch 200B (Axon Instruments) or Model 2400 (A-M systems) amplifier. The manual voltage clamp protocol was as follows:
(§4) Borosilicate glass micropipettes were fire-polished to a tip diameter yielding a resistance of 2-4 Mohms in the working solutions. The pipette was filled with a solution comprised of: 5 mM NaCl, 10 mM CsCl, 120 mM CsF, 0.1 mM CaCl2, 2 mM MgCl2, 10 mM HEPES, 10 mM EGTA; and adjusted to pH 7.2 with CsOH. The external solution had the following composition: 140 mM NaCl, 5 mM KCl, 2 mM CaCl2, 1 mM MgCl2, 10 mM HEPES; and adjusted to pH 7.4 with NaOH. In some studies, the external sodium was reduced by equimolar replacement with choline. Osmolarity in the CsF internal and NaCl external solutions was adjusted to 300 mOsm/kg and 310 mOsm/kg with glucose, respectively. All recordings were performed at ambient temperature in a bath chamber with a volume of 150 μL. Control sodium currents were measured in 0.5% DMSO. Controls and representative compounds of the invention were applied to the recording chamber through a 4-pinch or 8-pinch valve bath perfusion system manufactured by ALA Scientific Instruments.
(§5) Currents were recorded at 40 kHz sampling frequency, filtered at […], and stored using a Digidata-1322A analogue/digital interface with the pClamp software (Axon Instruments). Series resistance compensation was applied (60-80%). […] All statistics in this study are given as mean±SD.
The membrane potential was maintained at a voltage where inactivation of the channel is complete (which was −60 mV for both NaV1.7 and NaV1.5). The voltage is then stepped back to a very negative (Vhold=[…]) voltage for 20 ms and then a test pulse is applied to quantify the compound block. The 20 ms brief repolarization was long enough for compound-free channels to completely recover from fast inactivation, but the compound-bound channels recovered more slowly such that negligible recovery could occur during this interval. The percent decrease in sodium current following wash-on of compound was taken as the percent block of sodium channels.

hNaV1.7 [1] = target: T1, hNaV1.7 (Homo sapiens (Human), UniProt Q15858); assay: Competitive binding of tritiated compound to membranes from cells expressing hNav1.7 and the β1 subunit; conditions: 100 pM [3H]compound, 18 h, room temperature; read-out: NaV1.7 395 Membrane Binding IC50
T1 sequence (Q15858 whole entry, looked up): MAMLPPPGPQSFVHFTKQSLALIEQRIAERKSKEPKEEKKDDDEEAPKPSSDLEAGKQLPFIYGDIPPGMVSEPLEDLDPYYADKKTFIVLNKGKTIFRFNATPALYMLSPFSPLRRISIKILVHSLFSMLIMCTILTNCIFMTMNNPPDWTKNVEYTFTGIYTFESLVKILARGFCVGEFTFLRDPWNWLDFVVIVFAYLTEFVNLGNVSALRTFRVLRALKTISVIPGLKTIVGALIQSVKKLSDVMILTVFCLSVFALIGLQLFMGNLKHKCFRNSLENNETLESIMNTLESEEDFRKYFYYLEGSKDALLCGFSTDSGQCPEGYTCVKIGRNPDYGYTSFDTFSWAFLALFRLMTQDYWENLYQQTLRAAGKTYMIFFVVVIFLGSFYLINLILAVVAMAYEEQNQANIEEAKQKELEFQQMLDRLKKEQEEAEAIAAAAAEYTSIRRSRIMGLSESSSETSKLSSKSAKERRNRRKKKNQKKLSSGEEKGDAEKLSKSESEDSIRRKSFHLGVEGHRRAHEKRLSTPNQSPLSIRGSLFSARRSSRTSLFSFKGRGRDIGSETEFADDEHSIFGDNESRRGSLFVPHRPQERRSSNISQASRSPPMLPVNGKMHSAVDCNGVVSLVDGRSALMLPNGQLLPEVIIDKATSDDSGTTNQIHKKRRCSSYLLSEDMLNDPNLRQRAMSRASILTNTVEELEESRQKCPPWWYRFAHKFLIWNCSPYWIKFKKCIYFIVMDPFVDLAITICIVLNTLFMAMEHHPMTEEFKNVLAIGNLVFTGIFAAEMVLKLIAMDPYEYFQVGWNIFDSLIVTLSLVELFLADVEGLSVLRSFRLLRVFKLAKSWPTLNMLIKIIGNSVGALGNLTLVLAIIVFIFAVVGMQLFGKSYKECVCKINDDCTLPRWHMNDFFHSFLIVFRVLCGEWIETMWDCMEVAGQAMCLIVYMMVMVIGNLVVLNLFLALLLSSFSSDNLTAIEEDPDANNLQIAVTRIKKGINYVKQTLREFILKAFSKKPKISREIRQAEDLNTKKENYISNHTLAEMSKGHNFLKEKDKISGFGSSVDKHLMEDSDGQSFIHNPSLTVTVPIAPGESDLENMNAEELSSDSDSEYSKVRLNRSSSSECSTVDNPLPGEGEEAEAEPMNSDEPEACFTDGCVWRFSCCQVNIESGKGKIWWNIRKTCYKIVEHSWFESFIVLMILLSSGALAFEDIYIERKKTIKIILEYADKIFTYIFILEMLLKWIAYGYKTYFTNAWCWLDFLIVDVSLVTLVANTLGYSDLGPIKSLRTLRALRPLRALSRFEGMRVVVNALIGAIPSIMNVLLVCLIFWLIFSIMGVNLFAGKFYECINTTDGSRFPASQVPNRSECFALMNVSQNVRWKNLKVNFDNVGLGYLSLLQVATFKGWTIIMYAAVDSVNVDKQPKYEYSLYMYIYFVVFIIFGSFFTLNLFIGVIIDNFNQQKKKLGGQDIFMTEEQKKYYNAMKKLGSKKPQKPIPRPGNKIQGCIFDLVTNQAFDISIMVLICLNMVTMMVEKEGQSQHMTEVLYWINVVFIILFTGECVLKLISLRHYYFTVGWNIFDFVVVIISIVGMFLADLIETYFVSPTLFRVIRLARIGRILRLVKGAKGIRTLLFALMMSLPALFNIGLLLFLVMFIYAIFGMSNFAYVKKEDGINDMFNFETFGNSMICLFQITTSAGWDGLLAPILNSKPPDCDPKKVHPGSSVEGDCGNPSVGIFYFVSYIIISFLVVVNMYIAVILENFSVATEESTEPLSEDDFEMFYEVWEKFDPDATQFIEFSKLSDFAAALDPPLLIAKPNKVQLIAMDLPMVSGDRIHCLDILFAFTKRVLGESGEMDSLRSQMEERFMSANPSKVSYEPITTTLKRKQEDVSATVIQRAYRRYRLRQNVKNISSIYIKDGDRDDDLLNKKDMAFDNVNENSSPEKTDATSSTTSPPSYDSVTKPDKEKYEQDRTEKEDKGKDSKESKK
T1 sequence (Q07699 whole entry partner, looked up): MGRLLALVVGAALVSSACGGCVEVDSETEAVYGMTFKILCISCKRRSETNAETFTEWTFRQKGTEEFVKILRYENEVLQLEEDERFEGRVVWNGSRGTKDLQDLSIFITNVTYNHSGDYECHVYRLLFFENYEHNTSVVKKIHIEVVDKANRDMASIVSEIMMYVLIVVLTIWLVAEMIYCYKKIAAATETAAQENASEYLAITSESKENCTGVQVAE
Summary of the method: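 Membranes from cells expressing hNav1.7 with β1 subunit incubated 18 h at room temperature with 100 pM tritiated reference compound and test compound in 100 mM NaCl, 20 mM Tris HCl, pH 7.4. Nonspecific binding defined with 1 μM unlabelled compound; bound radioactivity counted after GF/C filtration. IC50 from 4-parameter logistic fit.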

hNaV1.7 [2] = target: T1, hNaV1.7; assay: Patch voltage clamp electrophysiology, inactivated state block of NaV1.7 in HEK-293 cells; assay type: cell-based; conditions: HEK cells with β1 subunit, read-out: hNaV 1.7 IC50
Procedure: as §1, §2, §3
as §4, with “The” for “Borosilicate glass micropipettes were fire-polished to a tip diameter yielding a resistance of 2-4 Mohms in the working solutions. The”
as §5
The membrane potential was maintained at a voltage where inactivation of the channel is complete (which was −60 mV for both NaV1.7 and NaV1.5). […] The percent decrease in sodium current following wash-on of compound was taken as the percent block of sodium channels.

Sequence of hNaV1.5 (Q14524 whole entry): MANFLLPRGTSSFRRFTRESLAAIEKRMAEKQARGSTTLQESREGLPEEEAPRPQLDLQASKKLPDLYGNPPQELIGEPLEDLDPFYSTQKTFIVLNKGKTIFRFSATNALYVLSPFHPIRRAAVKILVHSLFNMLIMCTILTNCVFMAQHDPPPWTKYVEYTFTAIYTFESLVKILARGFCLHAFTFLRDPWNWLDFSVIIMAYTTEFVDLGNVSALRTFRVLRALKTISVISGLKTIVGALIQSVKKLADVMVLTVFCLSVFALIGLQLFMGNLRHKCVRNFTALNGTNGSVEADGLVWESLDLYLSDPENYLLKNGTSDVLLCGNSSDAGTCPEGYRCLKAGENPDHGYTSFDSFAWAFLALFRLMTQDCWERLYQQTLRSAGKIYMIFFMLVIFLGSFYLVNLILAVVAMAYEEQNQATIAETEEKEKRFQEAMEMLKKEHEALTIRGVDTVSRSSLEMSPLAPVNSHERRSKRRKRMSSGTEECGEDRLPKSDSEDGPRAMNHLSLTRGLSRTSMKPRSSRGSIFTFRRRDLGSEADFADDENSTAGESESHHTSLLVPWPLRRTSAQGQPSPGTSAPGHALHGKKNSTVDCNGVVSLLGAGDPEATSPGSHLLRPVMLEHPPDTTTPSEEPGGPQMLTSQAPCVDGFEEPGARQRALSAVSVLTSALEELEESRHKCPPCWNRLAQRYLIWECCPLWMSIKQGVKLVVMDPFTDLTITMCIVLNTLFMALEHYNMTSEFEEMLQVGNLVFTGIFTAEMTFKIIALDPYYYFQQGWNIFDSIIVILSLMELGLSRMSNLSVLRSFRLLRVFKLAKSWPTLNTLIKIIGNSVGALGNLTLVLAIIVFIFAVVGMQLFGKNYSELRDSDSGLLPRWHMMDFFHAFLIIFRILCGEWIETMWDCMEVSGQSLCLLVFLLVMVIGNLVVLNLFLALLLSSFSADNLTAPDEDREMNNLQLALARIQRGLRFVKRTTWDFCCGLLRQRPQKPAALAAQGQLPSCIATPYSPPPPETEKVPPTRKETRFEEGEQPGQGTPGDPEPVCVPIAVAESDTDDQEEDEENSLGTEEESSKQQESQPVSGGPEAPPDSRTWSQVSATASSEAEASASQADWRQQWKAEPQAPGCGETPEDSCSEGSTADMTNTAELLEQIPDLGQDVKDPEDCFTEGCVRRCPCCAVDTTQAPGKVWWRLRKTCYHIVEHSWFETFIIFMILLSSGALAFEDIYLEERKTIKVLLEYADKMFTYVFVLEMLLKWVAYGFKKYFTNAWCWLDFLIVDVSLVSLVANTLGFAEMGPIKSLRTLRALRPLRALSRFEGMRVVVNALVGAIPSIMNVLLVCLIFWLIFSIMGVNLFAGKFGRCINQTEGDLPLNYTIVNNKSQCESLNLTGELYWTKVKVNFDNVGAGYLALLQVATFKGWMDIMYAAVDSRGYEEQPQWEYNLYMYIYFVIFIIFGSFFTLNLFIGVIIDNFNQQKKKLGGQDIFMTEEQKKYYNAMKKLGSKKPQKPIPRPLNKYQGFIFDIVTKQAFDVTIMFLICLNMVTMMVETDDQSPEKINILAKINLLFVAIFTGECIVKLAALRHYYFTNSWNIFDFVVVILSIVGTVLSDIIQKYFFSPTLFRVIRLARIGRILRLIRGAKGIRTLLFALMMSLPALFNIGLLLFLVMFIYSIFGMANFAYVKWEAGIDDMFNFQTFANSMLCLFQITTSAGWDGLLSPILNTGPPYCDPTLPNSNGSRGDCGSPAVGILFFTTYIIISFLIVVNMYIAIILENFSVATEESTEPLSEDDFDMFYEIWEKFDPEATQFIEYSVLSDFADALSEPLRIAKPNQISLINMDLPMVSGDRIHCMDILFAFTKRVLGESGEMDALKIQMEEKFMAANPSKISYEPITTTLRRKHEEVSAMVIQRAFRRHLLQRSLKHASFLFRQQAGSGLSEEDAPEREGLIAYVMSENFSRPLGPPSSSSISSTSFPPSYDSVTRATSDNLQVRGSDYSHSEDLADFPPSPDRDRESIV

| SMILES | IC50 (hNaV1.5) [nM] | IC50 (hNaV1.7 [1]) [nM] | IC50 (hNaV1.7 [2]) [nM] |
| --- | --- | --- | --- |
| CC(C)COc1ncc(Oc2cc(F)c(C(=O)NS(=O)(=O)N(C)C)cc2Cl)cc1Cl [Preparation 3, 5-chloro-4-((5-chloro-6-isobutoxypyridin-3-yl)oxy)-N-(N,N-dimethylsulfamoyl)-2-fluorobenzamide] | 2180 | 24.8 | 11 |
| CNS(=O)(=O)NC(=O)c1cc(Cl)c(Oc2cnc(OCC(C)C)c(Cl)c2)cc1F [Preparation 6, 5-chloro-4-((5-chloro-6-isobutoxypyridin-3-yl)oxy)-2-fluoro-N-(N-methylsulfamoyl) benzamide] | 7180 | 8.5 | 6 |
| CC(C)Oc1ncc(OCc2cc(F)c(C(=O)NS(=O)(=O)N3CCC3)cc2Cl)cc1Cl [Preparation 82] | – | 43 | 6.1 |
| CC(C)Oc1ncc(Oc2ccc(C(=O)NS(=O)(=O)N3CCC3)cc2C2CC2)cc1Cl [Preparation 84] | 3500 | 25 | 8.4 |
| COc1ncccc1-c1cc(C(=O)NS(=O)(=O)N2CCC2)ccc1Oc1cnc(OC(C)C)c(Cl)c1 [Preparation 86] | > 10000 | 11 | 22 |
| CC(C)Oc1ncc(Oc2cc(F)c(C(=O)NS(=O)(=O)N3CCC3)cc2C2CC2)cc1Cl [Preparation 87] | 1200 | 6 | 2.1 |
| C=Cc1cc(C(=O)NS(=O)(=O)N2CCC2)c(F)cc1Oc1cnc(OC(C)C)c(Cl)c1 [Preparation 91] | 2600 | 5 | 6.7 |
| C=Cc1cc(C(=O)NS(=O)(=O)N2CCC2)c(F)cc1Oc1cnc(OCC(F)(F)F)c(Cl)c1 [Preparation 92] | – | 11 | 4.3 |
